Test results reported in patent US6495313B2, “Silver halide color photographic light-sensitive material” (Fuji Photo Film Co., Ltd., priority 1997, dated 2002).

test: pKa of cyan coupler by pH titration (half-neutralization point); format: physicochemical; conditions: tetrahydrofuran/water 6/4 by volume, solvent mixture of tetrahydrofuran and water 6/4 by volume
Description: The pKa of the coupler can be easily determined by obtaining a pH of a point where neutralization is performed just half on a pH titration curve measured in a solvent mixture of tetrahydrofuran and water in a ratio of 6/4 by volume.

| pKa | SMILES |
| --- | --- |
| 10.3 | CCCCCCCCCCCCCCCCNC(=O)c1cc(OCCS(C)(=O)=O)c2ccccc2c1O [Sample C-4, reference compound] |
| 6.02 | CCCCCCCCCCCCc1ccc(S(=O)(=O)c2cc(C(=O)NCCc3ccccc3NC(C)=O)c(O)c3ccccc23)cc1 [Sample C-8] |
| ≤ 8.7 | CCCCCCCCCCCCCCOc1ccccc1NC(=O)c1cc(OC(C)=O)c2ccccc2c1O [Sample C-6] |
